Common to all, as to assay: biochemical
Common to all, as to parameters: Eurofins DiscoverX kinase panel, competitive binding assay at 1 uM, percent of DMSO control
Common to all, as to settings: competitive binding, percent of DMSO control

The target of one experiment is T1, CAMK4 (Homo sapiens, UniProt Q16566).
T1 sequence (Q16566 1-473): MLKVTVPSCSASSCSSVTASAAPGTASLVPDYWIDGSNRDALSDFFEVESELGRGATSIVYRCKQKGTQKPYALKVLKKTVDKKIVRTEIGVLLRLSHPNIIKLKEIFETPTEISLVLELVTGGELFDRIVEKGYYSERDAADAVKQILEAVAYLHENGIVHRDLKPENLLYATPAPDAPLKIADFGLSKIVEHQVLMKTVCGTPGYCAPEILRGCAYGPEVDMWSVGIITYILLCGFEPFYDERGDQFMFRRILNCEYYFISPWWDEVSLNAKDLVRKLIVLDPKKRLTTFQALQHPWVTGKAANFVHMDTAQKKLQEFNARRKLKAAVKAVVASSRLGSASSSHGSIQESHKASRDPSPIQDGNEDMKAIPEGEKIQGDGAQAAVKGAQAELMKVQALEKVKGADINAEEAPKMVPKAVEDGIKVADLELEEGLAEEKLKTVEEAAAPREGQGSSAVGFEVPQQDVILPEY
The procedure, abridged: (§1)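 Competitive binding assay across a 96-kinase panel with KIF18A compounds at 1 µM; values given as percentage of control (POC), single experiment.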

Another experiment addresses T2, IRAK 4 (Homo sapiens, UniProt Q9NWZ3).
T2 construct: gene IRAK4
T2 sequence (Q9NWZ3 1-460): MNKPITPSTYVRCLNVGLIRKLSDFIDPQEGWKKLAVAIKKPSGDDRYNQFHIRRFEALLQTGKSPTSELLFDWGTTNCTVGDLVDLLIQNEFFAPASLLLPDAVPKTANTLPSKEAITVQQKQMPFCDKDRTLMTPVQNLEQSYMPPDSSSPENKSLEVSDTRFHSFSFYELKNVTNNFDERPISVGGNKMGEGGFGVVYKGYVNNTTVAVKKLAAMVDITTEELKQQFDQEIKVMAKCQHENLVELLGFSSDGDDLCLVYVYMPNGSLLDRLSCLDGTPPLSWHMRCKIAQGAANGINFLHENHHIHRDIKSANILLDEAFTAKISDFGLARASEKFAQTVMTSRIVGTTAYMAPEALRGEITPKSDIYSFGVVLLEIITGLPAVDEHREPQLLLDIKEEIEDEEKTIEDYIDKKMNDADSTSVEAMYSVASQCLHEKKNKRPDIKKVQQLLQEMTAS
In short, it runs like this:
as §1

Another experiment addresses T3, PAK 2 (Homo sapiens, UniProt Q13177).
T3 construct: gene PAK2
The procedure, abridged: as §1

For the next experiment, the target named is PDGFRB (Homo sapiens, UniProt P09619). In short, it runs like this:
as §1

[1] abbreviates: read-out: Kinome Profiling performed by Eurofins DiscoverX / AM-0277, 1.0 µM / POC.
Setting [2] is: read-out: Kinome Profiling performed by Eurofins DiscoverX / AM-1882, 1.0 µM / POC.
Where [3] appears, read: read-out: Kinome Profiling performed by Eurofins DiscoverX / AM-5308, 1.0 µM / POC.

Like-named read-outs stand apart in the source and are kept apart here.

PDGFRB, sequence (P09619 whole entry): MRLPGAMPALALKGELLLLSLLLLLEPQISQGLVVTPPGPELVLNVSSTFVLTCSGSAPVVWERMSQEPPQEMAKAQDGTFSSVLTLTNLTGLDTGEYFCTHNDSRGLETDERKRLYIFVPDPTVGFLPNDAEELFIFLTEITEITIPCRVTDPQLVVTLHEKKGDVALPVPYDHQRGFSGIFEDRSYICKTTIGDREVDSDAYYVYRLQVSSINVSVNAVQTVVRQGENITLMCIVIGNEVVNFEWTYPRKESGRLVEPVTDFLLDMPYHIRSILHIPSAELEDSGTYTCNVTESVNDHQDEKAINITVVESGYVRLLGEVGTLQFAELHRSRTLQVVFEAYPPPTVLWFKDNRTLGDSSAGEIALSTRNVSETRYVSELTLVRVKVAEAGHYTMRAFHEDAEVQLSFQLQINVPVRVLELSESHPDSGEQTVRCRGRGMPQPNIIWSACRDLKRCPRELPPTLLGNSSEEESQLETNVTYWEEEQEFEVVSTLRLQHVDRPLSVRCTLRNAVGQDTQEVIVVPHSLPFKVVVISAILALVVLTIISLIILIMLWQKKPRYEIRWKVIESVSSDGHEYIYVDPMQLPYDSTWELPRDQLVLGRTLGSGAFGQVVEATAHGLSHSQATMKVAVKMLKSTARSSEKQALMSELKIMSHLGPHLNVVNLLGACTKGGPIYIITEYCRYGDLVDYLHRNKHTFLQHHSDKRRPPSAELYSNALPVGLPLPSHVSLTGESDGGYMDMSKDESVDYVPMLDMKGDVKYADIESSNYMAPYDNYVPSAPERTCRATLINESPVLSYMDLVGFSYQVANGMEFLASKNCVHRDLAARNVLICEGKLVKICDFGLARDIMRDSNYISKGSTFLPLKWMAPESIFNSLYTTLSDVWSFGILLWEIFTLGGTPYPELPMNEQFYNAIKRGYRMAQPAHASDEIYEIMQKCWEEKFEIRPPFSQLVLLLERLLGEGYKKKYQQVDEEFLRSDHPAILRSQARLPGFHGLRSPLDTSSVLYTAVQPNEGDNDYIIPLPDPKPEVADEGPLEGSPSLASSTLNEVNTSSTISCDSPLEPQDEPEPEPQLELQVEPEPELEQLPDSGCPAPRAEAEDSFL
T3 sequence (Q13177 whole entry): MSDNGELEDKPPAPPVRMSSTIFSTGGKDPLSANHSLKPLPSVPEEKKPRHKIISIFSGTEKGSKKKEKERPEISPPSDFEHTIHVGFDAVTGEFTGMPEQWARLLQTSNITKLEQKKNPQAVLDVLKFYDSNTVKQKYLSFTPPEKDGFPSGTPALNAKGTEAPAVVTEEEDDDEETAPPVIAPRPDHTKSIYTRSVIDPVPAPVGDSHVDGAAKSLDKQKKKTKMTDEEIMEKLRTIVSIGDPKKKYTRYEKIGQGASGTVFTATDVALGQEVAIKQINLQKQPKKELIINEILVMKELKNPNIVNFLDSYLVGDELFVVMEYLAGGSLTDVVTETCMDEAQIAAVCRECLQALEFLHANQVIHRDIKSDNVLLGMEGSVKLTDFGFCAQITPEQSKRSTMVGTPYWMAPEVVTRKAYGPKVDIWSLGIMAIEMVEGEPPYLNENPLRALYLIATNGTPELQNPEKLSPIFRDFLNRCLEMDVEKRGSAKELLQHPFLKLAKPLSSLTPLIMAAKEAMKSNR

With `CC(C)(CO)Nc1ccc(C(=O)Nc2cccc(S(=O)(=O)C3CCCC3)c2)c(N2CCC3(CC2)CC3)n1` [AM-0277], the remaining activity at 1 µM on CAMK4 (setting [1]) amounted to 81%; on IRAK 4 (setting [1]), 100%; on PAK 2 (setting [1]) it was 100%; on PDGFRB (setting [1]) it was 94%.
For the compound `CC(C)(C)NS(=O)(=O)c1cccc(NC(=O)c2ccc(S(=O)(=O)NC(C)(C)C)cc2N2CCC3(CC2)CC3)c1` [AM-1882], the remaining activity at 1 µM worked out at 99% at CAMK4 (setting [2]), 80% on IRAK 4 (setting [2]), 100% at PAK 2 (setting [2]) and 98% on PDGFRB (setting [2]).
For the compound `C[C@@H]1CN(c2cccc(NC(=O)c3ccc(NS(=O)(=O)CCO)cc3N3CCC4(CC3)CC4)n2)CCO1` [AM-5308], the remaining activity at 1 µM at CAMK4 (setting [3]) was 100%; on IRAK 4 (setting [3]), 95.5%; on PAK 2 (setting [3]), 66.5%; at PDGFRB (setting [3]) it was 97.5%.

The values are drawn from article PMC10824666 (Nature Cancer, 2023).
